From patent publication US20180282323A1, “Mesoionic imidazole derivatives as insecticides” (BAYER CROPSCIENCE AKTIENGESELLSCHAFT, priority 2015, published 2018)
Read-outs that look alike come from different tables or passages of the source.

Experiments:
[1] = log P by HPLC on reversed-phase column (EEC directive 79/831 Annex V.A8); type: physicochemical; conditions: for log p: HPLC on reversed-phase column (footnote a); for log p a): HPLC on reversed-phase column
Procedure, shortened: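 Reversed-phase (C18) HPLC at 43° C, following EEC directive 79/831 Annex V.A8.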

[2] = system: Myzus persicae; assay: Myzus persicae spray test (Chinese cabbage leaf discs); type: in vivo; conditions: application rate 500 g/ha, after 6 days
Description: Myzus persicae—Spray Test Solvent: 78 parts by weight of acetone • • 1.5 parts by weight of dimethylformamide Emulsifier: alkylaryl polyglycol ether
(§1) To produce a suitable active ingredient formulation, 1 part by weight of active ingredient is dissolved with the stated parts by weight of solvent and made up with water containing an emulsifier concentration of 1000 ppm until the desired concentration is attained. To produce further test concentrations, the formulation is diluted with emulsifier-containing water.
Discs of Chinese cabbage leaves (Brassica pekinensis) infested by all stages of the green peach aphid (Myzus persicae) are sprayed with an active ingredient formulation of the desired concentration.
After 6 days, the efficacy in % is determined. 100% means that all the aphids have been killed; 0% means that no aphids have been killed.

[3] = system: Boophilus microplus; assay: Boophilus microplus injection test; type: in vivo; conditions: application rate 20 μg/animal, assessed after 7 days by laying of fertile eggs
Description: Boophilus microplus—Injection Test Solvent: dimethyl sulphoxide
To produce a suitable active ingredient formulation, 10 mg of active ingredient are mixed with 0.5 ml of solvent and the concentrate is diluted with solvent to the desired concentration.
1 μl of the active ingredient solution is injected into the abdomen of 5 engorged adult female cattle ticks (Boophilus microplus). The animals are transferred into dishes and kept in a climate-controlled room.
Efficacy is assessed after 7 days by laying of fertile eggs. Eggs which are not visibly fertile are stored in a climate-controlled cabinet until the larvae hatch after about 42 days. An efficacy of 100% means that none of the ticks has laid any fertile eggs; 0% means that all the eggs are fertile.

[4] = system: Myzus persicae; assay: Myzus persicae oral test; type: in vivo; conditions: application rate 20 ppm, oral uptake through parafilm, after 5 days
Procedure, shortened: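 Oral feeding format: mixed-stage Myzus persicae imbibe acetone/water compound formulation in sugared IPL41 medium through parafilm. Efficacy assessed as percent aphids killed at day 5.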

[5] = system: Diabrotica balteata; assay: Diabrotica balteata spray test; type: in vivo; conditions: application rate 160 μg/well, wheat grains with beetle larvae, after 7 days
Description: Diabrotica balteata—Spray Test Solvent: 78 parts by weight of acetone • • 1.5 parts by weight of dimethylformamide Emulsifier: alkylaryl polyglycol ether
as §1
Pre-swollen wheat grains (Triticum aestivum) are incubated in a multiwell plate filled with agar and a little water for one day (5 seed grains per cavity). The germinated wheat grains are sprayed with an active ingredient formulation of the desired concentration. Subsequently, each cavity is infected with 10-20 beetle larvae of Diabrotica balteata.
After 7 days, the efficacy in % is determined. 100% means that all wheat plants have grown as in the untreated, uninfected control; 0% means that no wheat plant has grown.

[6] = system: Lucilia cuprina; assay: Lucilia cuprina test; type: in vivo; conditions: application rate 100 ppm, L1 larvae, after 2 days
Description: Lucilia cuprina Test Solvent: dimethyl sulphoxide
To produce a suitable active ingredient formulation, 10 mg of active ingredient are mixed with 0.5 ml of dimethyl sulphoxide, and the concentrate is diluted with water to the desired concentration.
About 20 L1 larvae of the Australian sheep blowfly (Lucilia cuprina) are transferred into a test vessel containing minced horsemeat and the active ingredient formulation of the desired concentration.
After 2 days, the kill in % is determined. 100% means that all the larvae have been killed; 0% means that no larvae have been killed.

[7] = system: Myzus persicae; assay: Myzus persicae spray test (bell pepper plants); type: in vivo; conditions: application rate 100 ppm, after 6 days
Description: Myzus persicae—Spray Test Solvent: 14 parts by weight of dimethylformamide Emulsifier: alkylaryl polyglycol ether
as §1, with “water. If the addition of ammonium salts or/and penetrants is required, these are each added in a concentration of 1000 ppm to the formulation solution.” for “water.”
Bell pepper plants (Capsicum annuum) severely infested with the green peach aphid (Myzus persicae) are treated by spraying with the active ingredient formulation in the desired concentration.
After 6 days, the kill in % is determined. 100% means that all of the aphids have been killed; 0% means that none of the aphids have been killed.

[8] = system: Meloidogyne incognita; assay: Meloidogyne incognita test; type: in vivo; conditions: application rate 20 ppm, formation of galls on lettuce after 14 days
Description: Meloidogyne incognita Test Solvent: 125.0 parts by weight of acetone
To produce a suitable preparation of active ingredient, 1 part by weight of active ingredient is mixed with the stated amount of solvent and the concentrate is diluted with water to the desired concentration.
Vessels are filled with sand, active ingredient solution, an egg/larvae suspension of the southern root-knot nematode (Meloidogyne incognita) and lettuce seeds. The lettuce seeds germinate and the plants develop. The galls develop on the roots.
After 14 days, the nematicidal efficacy in % is determined by the formation of galls. 100% means that no galls were found; 0% means that the number of galls on the treated plants corresponds to the untreated control.

Row | SMILES | log p [1] | efficacy [2] | efficacy [3] | efficacy [4] | efficacy [5] | efficacy (kill in %) [7] | other results
1 | COCC(=O)c1c([O-])n(Cc2ccc(Cl)nc2)c2ccc(F)c[n+]12 [Example I-1-165] | 1.39 | 90% | 100% | 100% |  |  | 
2 | O=C(NC1CC1)c1c([O-])n(Cc2cncnc2)c2cccc[n+]12 [Example I-1-152] | 0.84 | 90% | 80% | 100% |  |  | 
3 | CCOCC(=O)c1c([O-])n(Cc2ccc(Cl)nc2)c2cccc[n+]12 [Example I-1-020] | 1.39 | 90% | 80% | 100% | 100% |  | 
4 | Cc1ccn(CC(=O)c2c([O-])n(Cc3cnc(Cl)s3)c3cccc[n+]23)n1 [Example I-1-012] | 1.63 | 90% | 100% | 100% |  |  | 
5 | CC(c1cnc(Cl)s1)n1c([O-])c(C(=O)NC2CC2)[n+]2ccccc12 (stereo not shown) [Example I-1-254] |  | 90% | 80% | 100% | 100% |  | log p a) [1]: 1.94; efficacy (kill in %) [6]: 100%
6 | CSc1ccn(CC(=O)c2c([O-])n(Cc3ccc(Cl)nc3)c3cccc[n+]23)n1 [Example I-1-054] | 1.35 | 100% | 100% | 100% |  |  | 
7 | O=C(Nc1ccc(F)cc1)c1c([O-])n(Cc2cnc(Cl)s2)c2cccc[n+]12 [Example I-1-227] |  |  |  | 100% | 100% | 99% | log p a) [1]: 2.82
8 | CCOCC(=O)c1c([O-])n(Cc2ccc(Cl)nc2)c2cccc(C)[n+]12 [Example I-1-114] | 1.47 |  |  | 100% |  | 85% | 
9 | CC(c1ccc(Cl)nc1)n1c([O-])c(C(=O)CCl)[n+]2ccccc12 (stereo not shown) [Example I-1-161] | 1.75 |  |  | 100% |  |  | nematicidal efficacy [8]: 90%
10 | O=C(CO)c1c([O-])n(Cc2cnc(Cl)s2)c2cccc[n+]12 [Example I-1-089] | 1.14 |  |  | 100% |  |  | efficacy (kill in %) [6]: 90%
11 | CC(=O)N(CC(=O)c1c([O-])n(Cc2cnc(Cl)s2)c2cccc[n+]12)C1CC1 [Example I-1-062] | 1.58 |  |  | 100% |  | 95% | 
12 | COCC(=O)c1c([O-])n(Cc2ccc(Cl)nc2)c2c(C)ccc[n+]12 [Example I-1-193] | 1.38 |  |  | 100% |  | 100% | 
13 | COCCOCC(=O)c1c([O-])n(Cc2cnc(Cl)s2)c2cccc[n+]12 [Example I-1-087] | 1.38 | 100% |  | 100% | 100% |  | efficacy (kill in %) [6]: 100%
14 | COc1cnn(CC(=O)c2c([O-])n(Cc3cnc(Cl)s3)c3cccc[n+]23)c1 [Example I-1-013] | 1.58 |  |  | 100% |  | 85% | 
15 | O=C(Cn1ccnc1Cl)c1c([O-])n(Cc2cnc(Cl)s2)c2cccc[n+]12 [Example I-1-046] | 1.44 |  |  | 100% |  | 95% | 
16 | Cc1ccc[n+]2c(C(=O)NCc3ccc(Cl)cc3)c([O-])n(Cc3ccc(Cl)nc3)c12 [Example I-1-176] | 2.92 |  |  |  |  |  | nematicidal efficacy [8]: 90%
17 | Cc1cnc(Cn2c([O-])c(C(=O)NC3CC3)[n+]3ccccc23)cn1 [Example I-1-217] |  | 100% | 80% | 100% |  |  | log p a) [1]: 1.13
18 | O=C(NC1CC1)c1c([O-])n(Cc2ccc(Cl)nc2)c2c(OC(F)(F)F)ccc[n+]12 [Example I-1-196] | 2.33 |  |  |  |  |  | nematicidal efficacy [8]: 90%
19 | CCOCC(=O)c1c([O-])n(Cc2ccc(Cl)nc2)c2ccc(C)c[n+]12 [Example I-1-113] | 1.66 |  |  | 100% |  | 95% | 
20 | Cc1ccc[n+]2c(C(=O)NC3(C#N)CC3)c([O-])n(Cc3ccc(Cl)nc3)c12 [Example I-1-252] |  |  |  | 90% |  | 95% | log p a) [1]: 1.78
21 | CSc1cnn(CC(=O)c2c([O-])n(Cc3cnc(Cl)s3)c3cccc[n+]23)c1 [Example I-1-044] | 1.97 |  |  | 100% |  | 80% | 
22 | CC(c1ccc(Cl)nc1)n1c([O-])c(C(=O)NC2CC2)[n+]2ccccc12 (stereo not shown) [Example I-1-202] |  |  | 80% | 100% | 80% | 90% | log p a) [1]: 1.75; efficacy (kill in %) [6]: 100%
23 | O=C(Nc1c(F)cccc1F)c1c([O-])n(Cc2cnc(Cl)s2)c2cccc[n+]12 [Example I-1-231] |  |  |  | 100% | 100% | 99% | log p a) [1]: 2.43
24 | CC(C)SCC(=O)c1c([O-])n(Cc2cnc(Cl)s2)c2cccc[n+]12 [Example I-1-027] | 2.27 | 100% |  | 100% | 100% |  | efficacy (kill in %) [6]: 90%
25 | O=C(Nc1ccccc1)c1c([O-])n(Cc2cnc(Cl)s2)c2cccc[n+]12 [Example I-1-145] | 2.73 |  |  | 100% | 100% | 100% | efficacy (kill in %) [6]: 100%
26 | CC(C)OCC(=O)c1c([O-])n(Cc2ccc(Cl)nc2)c2cccc[n+]12 [Example I-1-016] | 1.67 | 100% | 100% | 100% |  |  | 
27 | O=C(Cn1cc(C(F)(F)F)cn1)c1c([O-])n(Cc2cnc(Cl)s2)c2cccc[n+]12 [Example I-1-045] | 2.37 |  |  | 100% | 80% | 95% | 
28 | Cc1cnn(CC(=O)c2c([O-])n(Cc3cnc(Cl)s3)c3cccc[n+]23)c1 [Example I-1-049] | 1.72 | 90% | 80% | 100% |  |  | efficacy (kill in %) [6]: 100%
29 | CCSCC(=O)c1c([O-])n(Cc2cnc(Cl)s2)c2cccc[n+]12 [Example I-1-028, 1-[(2-Chloro-1,3-thiazol-5-yl)methyl]-3-[(ethylsulphanyl)acetyl]-1H-imidazo[1,2-a]pyridin-4-ium-2-olate] |  | 90% |  |  | 100% |  | chromatographic logP [1]: 1.99; chromatographic logP ([1]; pH 2.7): 1.99; pest or weed control at 20 ppm ([4]; Myzus persicae, 120 h, read-out: efficacy): 100%
30 | COCC(=O)c1c([O-])n(Cc2cnc(Cl)c(Cl)c2)c2cccc[n+]12 [Example I-1-179] | 1.66 |  |  | 100% |  | 95% | 
